This assay deals with T1, KDM5A (Homo sapiens, UniProt P29375).
T1 construct: Full length KDM5A enzyme was expressed and purified inhouse; made in house
The experiment in a line: KDM5 enzyme assay, KDM5A HTRF (Example 463). The class given is biochemical.

[1] abbreviates: compounds of Examples 1-432, read-out: Example 463 Assay KDM5A HTRF IC50.

Like-named read-outs stand apart in the source and are kept apart here.

Usually IC50 stands for the concentration that gives 50% inhibition.

T1 sequence (P29375 whole entry): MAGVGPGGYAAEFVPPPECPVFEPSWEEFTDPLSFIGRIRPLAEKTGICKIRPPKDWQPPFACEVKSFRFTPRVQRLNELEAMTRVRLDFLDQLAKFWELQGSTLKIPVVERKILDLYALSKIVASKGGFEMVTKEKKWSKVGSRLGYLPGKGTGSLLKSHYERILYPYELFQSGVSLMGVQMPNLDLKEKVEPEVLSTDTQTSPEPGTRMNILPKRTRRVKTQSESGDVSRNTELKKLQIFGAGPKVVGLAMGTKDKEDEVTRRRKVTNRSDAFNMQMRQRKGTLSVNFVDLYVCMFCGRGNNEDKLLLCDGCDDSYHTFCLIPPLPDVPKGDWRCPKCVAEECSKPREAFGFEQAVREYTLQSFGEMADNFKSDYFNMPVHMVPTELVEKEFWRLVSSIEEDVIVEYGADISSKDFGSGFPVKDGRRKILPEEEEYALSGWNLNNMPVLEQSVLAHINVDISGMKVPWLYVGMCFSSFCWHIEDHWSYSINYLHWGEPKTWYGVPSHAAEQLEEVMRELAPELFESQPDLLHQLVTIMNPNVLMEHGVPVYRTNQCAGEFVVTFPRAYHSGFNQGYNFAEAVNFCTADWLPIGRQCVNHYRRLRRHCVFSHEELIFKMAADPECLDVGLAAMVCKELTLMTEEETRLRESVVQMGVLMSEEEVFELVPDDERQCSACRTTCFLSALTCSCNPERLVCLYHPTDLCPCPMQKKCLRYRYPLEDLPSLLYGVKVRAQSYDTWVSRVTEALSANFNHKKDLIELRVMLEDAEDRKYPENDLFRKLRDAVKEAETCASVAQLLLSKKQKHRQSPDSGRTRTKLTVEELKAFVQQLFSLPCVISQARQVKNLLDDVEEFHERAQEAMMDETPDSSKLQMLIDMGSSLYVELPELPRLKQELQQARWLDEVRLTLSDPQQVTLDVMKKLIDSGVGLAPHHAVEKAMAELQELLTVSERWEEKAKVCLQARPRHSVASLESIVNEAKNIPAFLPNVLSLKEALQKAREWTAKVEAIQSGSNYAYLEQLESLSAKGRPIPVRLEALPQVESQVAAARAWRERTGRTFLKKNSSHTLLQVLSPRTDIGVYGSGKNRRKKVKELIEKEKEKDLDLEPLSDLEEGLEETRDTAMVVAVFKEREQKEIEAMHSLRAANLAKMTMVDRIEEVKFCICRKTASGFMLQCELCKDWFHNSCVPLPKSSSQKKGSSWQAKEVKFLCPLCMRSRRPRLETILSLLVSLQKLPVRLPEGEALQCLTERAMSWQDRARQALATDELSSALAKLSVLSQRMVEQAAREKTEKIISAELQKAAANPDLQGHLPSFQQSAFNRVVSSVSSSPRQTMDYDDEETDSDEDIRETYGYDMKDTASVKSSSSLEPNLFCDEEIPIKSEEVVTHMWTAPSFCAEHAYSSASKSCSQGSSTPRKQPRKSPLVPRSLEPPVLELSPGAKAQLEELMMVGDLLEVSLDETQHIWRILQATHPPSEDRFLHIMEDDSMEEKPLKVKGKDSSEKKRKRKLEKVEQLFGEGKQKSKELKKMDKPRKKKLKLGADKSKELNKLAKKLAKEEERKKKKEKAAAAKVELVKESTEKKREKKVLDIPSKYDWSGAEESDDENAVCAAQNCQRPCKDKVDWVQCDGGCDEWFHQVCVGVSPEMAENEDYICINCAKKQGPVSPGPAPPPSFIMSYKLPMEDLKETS
Description: Full length KDM5A enzyme was expressed and purified inhouse. Biotin-H3K4me3 peptide was purchased from New England Biolabs. HTRF reagents (containing Eu-labeled H3K4me1-2 antibody, and streptavidin-XL665) were purchased from Cis-Bio International. Plates were read on an Envision multi-label plate reader Perkin Elmer).
The HTRF assay mixture contained 2 nM full length KDM5A enzyme, 100 nM H3K4Me3 peptide substrate, 1 uM 2-OG, 100 uM Fe^2+, 500 uM ascorbate. 50 mM HEPES pH 7.0 buffer, 0.01% Triton-X 100, 2 mM DTT. […] The plates were incubated at room temperature for 60 minutes and then read in the Envision plate reader.

With `CCc1c[nH]c2c(C#N)cnn2c1=O` [Example 20, 6-Ethyl-7-oxo-4,7-dihydropyrazolo[1,5-a]pyrimidine-3-carbonitrile], the IC50 under setting [1] was found to be 37 nM.

On to `CC(C)(C)c1c[nH]c2c(C#N)cnn2c1=O` [Example 21, 6-(tert-Butyl)-7-oxo-4,7-dihydropyrazolo[1,5-a]pyrimidine-3-carbonitrile], for which the IC50 under setting [1] was found to be 38 nM.

As to `CC(C)c1c(CCc2ccccc2)[nH]c2c(C#N)cnn2c1=O` [Example 23, 6-isopropyl-7-oxo-5-phenethyl-4,7-dihydropyrazolo[1,5-a]pyrimidine-3-carbonitrile], under setting [1], the IC50 was 9.8 nM.

For the molecule `CCc1c(-c2cccc(I)c2)[nH]c2c(C#N)cnn2c1=O` [Example 24, 6-ethyl-5-(3-iodophenyl)-7-oxo-4,7-dihydropyrazolo[1,5-a]pyrimidine-3-carbonitrile], under setting [1], the IC50 was determined as 7 nM.

Turning to `CCc1c(C(=O)O)[nH]c2c(C#N)cnn2c1=O` [Example 25, 3-cyano-6-ethyl-7-oxo-4,7-dihydropyrazolo[1,5-a]pyrimidine-5-carb oxylic acid], the IC50 under setting [1] amounted to 220 nM.

For the molecule `CCc1c(C(N)=O)n(C)c2c(C#N)cnn2c1=O` [Example 26, 3-cyano-6-ethyl-4-methyl-7-oxo-4,7-dihydropyrazolo[1,5-a]pyrimidine-5-carboxamide], the IC50 under setting [1] came to 4400 nM.

On to `CCc1c(C(=O)NC)n(C)c2c(C#N)cnn2c1=O` [Example 27, 3-cyano-6-ethyl-N,4-dimethyl-7-oxo-4,7-dihydropyrazolo[1,5-a]pyrimidine-5-carboxamide], for which the 50% inhibitory concentration (IC50) under setting [1] was 3900 nM.

Regarding `CCc1c(-c2nc(C)no2)[nH]c2c(C#N)cnn2c1=O` [Example 28, 6-ethyl-5-(3-methyl-1,2,4-oxadiazol-5-yl)-7-oxo-4H-pyrazolo[1,5-a]pyrimidine-3-carbonitrile], the IC50 under setting [1] was determined as 18 nM.

For the molecule `CCc1c(-c2nnc(C)o2)[nH]c2c(C#N)cnn2c1=O` [Example 29, 6-ethyl-5-(5-methyl-1,3,4-oxadiazol-2-yl)-7-oxo-4,7-dihydropyrazolo[1,5-a]pyrimidine-3-carbonitrile], under setting [1], the IC50 amounted to 16 nM.

Regarding `CCc1c(-c2ncc[nH]2)[nH]c2c(C#N)cnn2c1=O` [Example 30, 6-ethyl-5-(1H-imidazol-2-yl)-7-oxo-4,7-dihydropyrazolo[1,5-a]pyrimidine-3-carbonitrile], the 50% inhibitory concentration (IC50) under setting [1] turned out to be 12 nM.

`CCc1c(C(=O)NCC(=O)c2ccccc2)[nH]c2c(C#N)cnn2c1=O` [Example 31, 3-cyano-6-ethyl-7-oxo-N-(2-oxo-2-phenylethyl)-4,7-dihydropyrazolo[1,5-a]pyrimidine-5-carboxamide]: the IC50 under setting [1] is 25 nM.

For `CCc1c(-c2ncc(-c3ccccc3)o2)[nH]c2c(C#N)cnn2c1=O` [Example 32, 6-ethyl-7-oxo-5-(5-phenyloxazol-2-yl)-4,7-dihydropyrazolo[1,5-a]pyrimidine-3-carbonitrile], under setting [1], the IC50 is 15 nM.

Regarding `N#Cc1cnn2c(=O)c(CC(F)F)c(-c3ccccc3)[nH]c12` [Example 33, 6-(2,2-Difluoroethyl)-7-oxo-5-phenyl-4H-pyrazolo[1,5-a]pyrimidine-3-carbonitrile], under setting [1], the IC50 is 9.3 nM.

On to `N#Cc1cnn2c(=O)c(C3CCC3)c(-c3ccccc3)[nH]c12` [Example 34, 6-Cyclobutyl-7-oxo-5-phenyl-4H-pyrazolo[1,5-a]pyrimidine-3-carbonitrile], for which the IC50 under setting [1] stood at 9.5 nM.

As to `N#Cc1cnn2c(=O)c(C3CCC3)c(-c3cn[nH]c3)[nH]c12` [Example 35, 6-Cyclobutyl-7-oxo-5-(1H-pyrazol-4-yl)-4H-pyrazolo[1,5-a]pyrimidine-3-carbonitrile], under setting [1], the IC50 worked out at 30 nM.

`N#Cc1cnn2c(=O)c(C3CCC3)c(-c3cnn(C4CCCCC4)c3)[nH]c12` [Example 36, 6-Cyclobutyl-5-(1-cyclohexylpyrazol-4-yl)-7-oxo-4H-pyrazolo[1,5-a]pyrimidine-3-carbonitrile]: the IC50 under setting [1] is 10.4 nM.

Turning to `C#CCc1c(-c2ccccc2)[nH]c2c(C#N)cnn2c1=O` [Example 37, 7-Oxo-5-phenyl-6-(prop-2-yn-1-yl)-4,7-dihydropyrazolo[1,5-a]pyrimidine-3-carbonitrile], the IC50 under setting [1] was 24 nM.

As to `C#CC(C)c1c(-c2cnn(C(C)C)c2)[nH]c2c(C#N)cnn2c1=O` (stereo not drawn) [Example 38, 5-(1-isopropylpyrazol-4-yl)-6-(1-methylprop-2-ynyl)-7-oxo-4H-pyrazolo[1,5-a]pyrimidine-3-carbonitrile], the IC50 under setting [1] worked out at 36 nM.

For the molecule `CC(c1c(-c2ccccc2)[nH]c2c(C#N)cnn2c1=O)C1CC1` (stereo not drawn) [Example 39, 6-(1-cyclopropylethyl)-7-oxo-5-phenyl-4H-pyrazolo[1,5-a]pyrimidine-3-carbonitrile], the IC50 under setting [1] amounted to 128 nM.

As for `CCc1c(-c2cccc(-c3ccccc3)c2)[nH]c2c(C#N)cnn2c1=O` [Example 40, 5-([1,1′-Biphenyl]-3-yl)-6-ethyl-7-oxo-4,7-dihydropyrazolo[1,5-a]pyrimidine-3-carbonitrile], the 50% inhibitory concentration (IC50) under setting [1] amounted to 10 nM.

As to `CCc1c(-c2cccc(Nc3ccc(F)cc3)c2)[nH]c2c(C#N)cnn2c1=O` [Example 41, 6-Ethyl-5-(3-((4-fluorophenyl)amino)phenyl)-7-oxo-4,7-dihydropyrazolo[1,5-a]pyrimidine-3-carbonitrile], under setting [1], the IC50 is 19 nM.

For `CC(C)c1c(-c2cccc(N3CCCC3=O)c2)[nH]c2c(C#N)cnn2c1=O` [Example 42, 6-isopropyl-7-oxo-5-(3-(2-oxopyrrolidin-1-yl)phenyl)-4,7-dihydropyrazolo[1,5-a]pyrimidine-3-carbonitrile], the half-maximal inhibitory concentration (IC50) under setting [1] came out at 21 nM.

With `N#Cc1cnn2c(=O)cc(-c3cc(N)cc(-c4ccccc4)c3)[nH]c12` [Example 43, 5-(3-amino-5-phenyl-phenyl)-7-oxo-4H-pyrazolo[1,5-a]pyrimidine-3-carbonitrile], the IC50 under setting [1] is 83 nM.

In the case of `CC(=O)Nc1cc(-c2ccccc2)cc(-c2cc(=O)n3ncc(C#N)c3[nH]2)c1` [Example 44, N-[3-(3-Cyano-7-oxo-4H-pyrazolo[1,5-a]pyrimidin-5-yl)-5-phenyl-phenyl]acetamide], the IC50 under setting [1] was determined as 368 nM.

`N#Cc1cnn2c(=O)c(Br)c(-c3ccccc3)[nH]c12` [Example 45, 6-Bromo-7-oxo-5-phenyl-4,7-dihydropyrazolo[1,5-a]pyrimidine-3-carbonitrile] yielded an IC50 of 30 nM.

With `Cc1[nH]c2c(C#N)cnn2c(=O)c1-c1ccco1` [Example 46, 6-(2-Furyl)-5-methyl-7-oxo-4H-pyrazolo[1,5-a]pyrimidine-3-carbonitrile], the IC50 under setting [1] was determined as 2900 nM.

Take `CC(C)c1c(Nc2ccccc2)[nH]c2c(C#N)cnn2c1=O` [Example 47, 6-isopropyl-7-oxo-5-(phenylamino)-4,7-dihydropyrazolo[1,5-a]pyrimidine-3-carbonitrile]: the IC50 under setting [1] amounted to 24 nM.

Regarding `CC(C)c1c(N2CCCCC2)[nH]c2c(C#N)cnn2c1=O` [Example 48, 6-isopropyl-7-oxo-5-(piperidin-1-yl)-4,7-dihydropyrazolo[1,5-a]pyrimidine-3-carbonitrile], the IC50 under setting [1] is 84 nM.

`CC(C)c1c(Oc2ccccc2)[nH]c2c(C#N)cnn2c1=O` [Example 49, 6-isopropyl-7-oxo-5-phenoxy-4,7-dihydropyrazolo[1,5-a]pyrimidine-3-carbonitrile]: the IC50 under setting [1] was 25 nM.

Turning to `CC(C)c1c(-c2coc3ccccc23)[nH]c2c(C#N)cnn2c1=O` [Example 50], under setting [1], the concentration for half-maximal inhibition (IC50) amounted to 20 nM.

The record behind these values is patent publication US10035801B2, “Pyrazolo compounds and uses thereof” (CONSTELLATION PHARMACEUTICALS, INC., priority 2013, dated 2018).
